Experimental data as given in paper PMC10810651, “Discovery of novel and potent CDK8 inhibitors for the treatment of acute myeloid leukaemia” (Journal of Enzyme Inhibition and Medicinal Chemistry, 2024).
Like-named read-outs stand apart in the source and are kept apart here.

Legend:
molm-13 = assay: Antiproliferative CCK-8 assay, molm-13; format: cell-based; conditions: Homo sapiens; molm-13, CCK-8 assay, means ± SD; read-out: GC50 (the source's name)
Text: (§1) Compounds12, 13 and 30 were selected for further cell activity assessments based on the enzymatic activity assessment results. molm-13 and MV4-11(acute myeloid lineage leukaemia cells), MGC-803 (gastric cancer cell), MDA-MB-231(breast cancer cell), A375 (melanoma cell), A549 (lung cancer cell), HCT-116, SW-480 and HT-29 (colorectal cancer cells) were selected to evaluate antitumor activity in vitro, GES-1 (gastric mucosal epithelial cell) was selected to evaluate toxicity in vitro.
(§2) CO2 atmosphere incubator for 24 h. Then, medium with compound at the concentrations of 100, 20, 4, 0.8, 0.016 μM was added into each well for another 48 h and incubated with CCK-8 (10 μL) for 2 h at 37 °C. The absorbance value at 450 nm was measured by the microplate reader (PerkinElmer Envision). […]

CDK8 = CDK8 (Homo sapiens, UniProt P49336); assay: CDK8 enzyme activity assay (ADP-Glo Kinase Assay); format: biochemical; conditions: means ± SD; for inhibition at 0.2 µM: CDK8, 200 nM, two experiments, read-out: Inhibition rate @ 200 nM (%); for IC50: three experiments
Protocol: Some of them with high inhibition rates were further measured for their IC50 values. Compound SEL-120 34 A was selected as a positive control. [table] [table] page 14: CO2 atmosphere incubator for 24 h. Then, medium with compound at the concentrations of 100, 20, 4, 0.8, 0.016 μM was added into each well for another 48 h and incubated with CCK-8 (10 μL) for 2 h at 37 °C. The absorbance value at 450 nm was measured by the microplate reader (PerkinElmer Envision). 1.4 Kinase Assay The kinase inhibition was detected by ADP-Glo™ Kinase Assay (Promega) using a black 384-well plate. The active CDK8 kinase was diluted in mixture (5 ng enzyme, 0.5 μg substrate, 50 μM DTT, 1 μL reaction buffer and added ddH2O to 3 μL each well) and the final ATP concentrations of was 50 μM. After incubation at room temperature, ADP-Glo™ solution and kinase detection reagent was added. The data was collected by the microplate reader. 1.5 Cellular thermal shift assay HCT-116 cells were cultured in cell culture dishes and treated with 5 μM compound 12 for 4 h. HCT-116 cells were collected, washed by PBS and cell suspensions were divided into 12 PCR tubes equally. Then,11 tubes were heated at 37, […] After that, cells were broken by ultr asonic treatment and centrifuged at 12000 rpm for 20 min. The supernatant was analyzed by western blot. 1.6 Biotin-pulldown assay After co-treated with 2 μM biotinylated compound and compound 12 for 12 h, HCT-116 cells were lysed with NP-40 containing PMSF and centrifuged at 14000 r for 30 min at 4 °C. Then, 40 μL supernatant was used as the input by adding 10 μL 5×SDS loading buffer, and the remains were mixed with Streptavidin Agarose (Novex, Carlsbad, CA, USA). After 6 h incuba tion at 4 °C, the beads were washed three times using lysis buffer and resuspended in 2× SDS loading buffer. HEK -293T cells overexpressed flag -tagged CDK8 were treated using above method. The samples were analyzed by western blot.

GES-1 = assay: In vitro toxicity CCK-8 assay, GES-1; format: cell-based; conditions: Homo sapiens, GES1, GES-1 gastric mucosal epithelial cell, read-out: GC50 (the source's name)
Text: as §1, §2

HCT-116 = assay: Antiproliferative CCK-8 assay, HCT-116; format: cell-based; conditions: Homo sapiens; HCT-116, CCK-8 assay, means ± SD; read-out: GC50 (the source's name)
Text: as §1, §2

A549 = assay: Antiproliferative CCK-8 assay, A549; format: cell-based; conditions: Homo sapiens; A549, CCK-8 assay, means ± SD; read-out: GC50 (the source's name)
Text: as §1, §2

HT-29 = assay: Antiproliferative CCK-8 assay, HT-29; format: cell-based; conditions: Homo sapiens; HT-29, CCK-8 assay, means ± SD; read-out: GC50 (the source's name)
Text: as §1, §2

MGC-803 = assay: Antiproliferative CCK-8 assay, MGC-803; format: cell-based; conditions: Homo sapiens; MGC-803, CCK-8 assay, means ± SD; read-out: GC50 (the source's name)
Text: as §1, §2

MV4-11 = assay: Antiproliferative CCK-8 assay, MV4-11; format: cell-based; conditions: Homo sapiens; MV4-11, CCK-8 assay, means ± SD; read-out: GC50 (the source's name)
Text: as §1, §2

MDA-MB-231 = assay: Antiproliferative CCK-8 assay, MDA-MB-231; format: cell-based; conditions: Homo sapiens; MDA-MB-231, CCK-8 assay, means ± SD; read-out: GC50 (the source's name)
Text: as §1, §2

A375 = assay: Antiproliferative CCK-8 assay, A375; format: cell-based; conditions: Homo sapiens, A-375; A375, CCK-8 assay, means ± SD; read-out: GC50 (the source's name)
Text: as §1, §2

SW480 = assay: Antiproliferative CCK-8 assay, SW480; format: cell-based; conditions: Homo sapiens; SW480, CCK-8 assay, means ± SD; read-out: GC50 (the source's name)
Text: as §1, §2

[1] = Caco-2 permeability determination; format: in vitro ADME; conditions: human; for Papp A→B: Caco-2, A→B; for Papp B→A: Caco-2, B→A
[2] = Caco-2, Caco-2, A→B, read-out: Recovery A→B
[3] = Caco-2, Caco-2, B→A, read-out: Recovery B→A

Chain of CDK8 (P49336 whole entry): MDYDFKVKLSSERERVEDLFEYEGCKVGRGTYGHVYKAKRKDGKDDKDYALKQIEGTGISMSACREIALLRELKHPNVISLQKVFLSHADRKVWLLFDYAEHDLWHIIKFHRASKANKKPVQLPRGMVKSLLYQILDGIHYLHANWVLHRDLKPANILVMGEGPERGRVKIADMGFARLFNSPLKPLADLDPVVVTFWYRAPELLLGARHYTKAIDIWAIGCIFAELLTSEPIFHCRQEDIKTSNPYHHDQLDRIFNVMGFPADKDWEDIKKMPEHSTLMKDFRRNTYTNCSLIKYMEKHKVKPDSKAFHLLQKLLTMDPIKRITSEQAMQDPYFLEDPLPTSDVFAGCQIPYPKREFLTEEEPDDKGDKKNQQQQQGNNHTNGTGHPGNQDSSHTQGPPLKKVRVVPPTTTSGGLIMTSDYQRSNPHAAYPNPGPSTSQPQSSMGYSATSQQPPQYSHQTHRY
Chain of CDK8 (P24863 whole entry partner): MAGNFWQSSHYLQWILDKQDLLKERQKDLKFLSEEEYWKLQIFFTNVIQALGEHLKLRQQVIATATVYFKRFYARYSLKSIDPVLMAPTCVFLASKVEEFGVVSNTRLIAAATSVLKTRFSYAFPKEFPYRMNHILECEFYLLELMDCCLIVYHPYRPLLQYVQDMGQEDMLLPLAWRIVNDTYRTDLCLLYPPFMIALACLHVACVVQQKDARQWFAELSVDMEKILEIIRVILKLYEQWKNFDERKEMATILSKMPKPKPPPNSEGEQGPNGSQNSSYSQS

Row | SMILES | inhibition at 0.2 µM (CDK8) | IC50 (CDK8) | other results
1 | CCOC(C)n1cc(-c2c[nH]c3ncc(-c4cccc(C(N)=O)c4)cc23)cn1 (centres unmarked) [Compound 17] | 46.5 ± 1.8% | – | –
2 | Cn1cc(-c2c[nH]c3ncc(-c4cccc(C(N)=O)c4)cc23)cn1 [Compound 16] | 29.5 ± 2.3% | – | –
3 | NC(=O)c1cccc(-c2cnc3[nH]cc(Cl)c3c2)c1 [Compound 11] | 51.8 ± 4.3% | – | –
4 | NC(=O)c1cccc(-c2cnc3[nH]cc(-c4ccsc4)c3c2)c1 [Compound 13] | 70.4 ± 3.6% | 65.7 ± 3.1 nM | IC50 (molm-13): 160 ± 20 nM; IC50 (GES-1): 24200 ± 3620 nM; IC50 (HCT-116): 2480 ± 990 nM; IC50 (A549): 21800 ± 1660 nM; IC50 (HT-29): 9310 ± 1670 nM; IC50 (MGC-803): 9190 ± 2420 nM; IC50 (MV4-11): 360 ± 120 nM; IC50 (MDA-MB-231): 31500 ± 1270 nM; IC50 (A375): 950 ± 520 nM; IC50 (SW480): 5450 ± 2820 nM
5 | NC(=O)c1cccc(-c2cnc3[nH]cc(-c4cn[nH]c4)c3c2)c1 [Compound 15] | 49.1 ± 3.4% | – | –
6 | Cn1ccc2cc(-c3cccc(C(N)=O)c3)ccc21 [Compound 8] | 51.7 ± 5.4% | 255 ± 4.5 nM | –
7 | NC(=O)c1cccc(-c2cnc3[nH]cc(-c4ccccc4F)c3c2)c1 [Compound 20] | 58.7 ± 3.3% | 161 ± 3.1 nM | –
8 | CC(C)NCC(O)COc1cccc2ccccc12 (centres unmarked) [Propranolol] | – | – | recovery [1, 2]: 99.9%; recovery [1, 3]: 107%; Papp A→B [1]: 40.2 ×10⁻⁶ cm/s; Papp B→A [1]: 34.1 ×10⁻⁶ cm/s
9 | NC(=O)c1cccc(-c2ccc3[nH]ccc3c2)c1 [Compound 7] | 59.1 ± 2.1% | 212 ± 6.1 nM | –
10 | NC(=O)c1cccc(-c2cnc3[nH]cc(-c4ccccc4)c3c2)c1 [Compound 19] | 57.4 ± 1.4% | 158 ± 4.3 nM | –
11 | NC(=O)c1cccc(-c2cnc(N)c3ccccc23)c1 [Compound 6] | 75.8 ± 5.9% | 64.5 ± 3.8 nM | –
12 | NC(=O)c1cccc(-c2ccc(N)nc2)c1 [Compound 3] | 50.8 ± 2.3% | 177 ± 7.2 nM | –
13 | NC(=O)c1cccc(-c2cnc3[nH]ncc3c2)c1 [Compound 2] | 35.2 ± 2.8% | – | –
14 | COc1ccccc1-c1c[nH]c2ncc(-c3cccc(C(N)=O)c3)cc12 [Compound 25] | 62 ± 4.6% | 136 ± 5.3 nM | –
15 | NC(=O)c1cccc(-c2cnc3[nH]cc(-c4cccs4)c3c2)c1 [Compound 14] | 52.5 ± 2.8% | 186 ± 4.6 nM | –
16 | NC(=O)c1cccc(-c2ccc3occc3c2)c1 [Compound 9] | 60.4 ± 4.3% | 190 ± 4.9 nM | –
17 | NC(=O)c1cccc(-c2cncc3ccccc23)c1 [Compound 5] | 55.7 ± 3.8% | 186 ± 4.5 nM | –
18 | NC(=O)c1cccc(-c2cnc3[nH]cc(-c4ccccc4O)c3c2)c1 [Compound 22] | 36.2 ± 2.7% | – | –
19 | NC(=O)c1cccc(-c2cnc3[nH]ccc3n2)c1 [Compound 1] | 63 ± 4.5% | 106 ± 4.6 nM | –
20 | NC(=O)c1cccc(-c2ccc3sccc3c2)c1 [Compound 10] | 38.3 ± 2.2% | – | –
21 | NC(=O)c1cccc(-c2cnc3[nH]cc(-c4cnn(C(F)F)c4)c3c2)c1 [Compound 18] | 32.5 ± 4.9% | – | –
22 | CC(C)(C)NCC(O)COc1cccc2c1CC(O)C(O)C2 (centres unmarked) [Nadolol] | – | – | recovery [1, 3]: 111%; Papp A→B [1]: 0.2 ×10⁻⁶ cm/s; Papp B→A [1]: 0.5 ×10⁻⁶ cm/s
23 | CCc1ccccc1-c1c[nH]c2ncc(-c3cccc(C(N)=O)c3)cc12 [Compound 24] | 24.6 ± 2.4% | – | –
24 | C[C@H]1O[C@@H](O[C@H]2[C@@H](O)C[C@H](O[C@H]3[C@@H](O)C[C@H](O[C@H]4CC[C@@]5(C)[C@H](CC[C@@H]6[C@@H]5C[C@@H](O)[C@]5(C)[C@@H](C7=CC(=O)OC7)CC[C@]65O)C4)O[C@@H]3C)O[C@@H]2C)C[C@H](O)[C@@H]1O [Digoxin] | – | – | efflux ratio ([1]; Caco-2): 6.2; recovery [1, 2]: 92.5%; recovery [1, 3]: 99.2%; Papp A→B [1]: 0.9 ×10⁻⁶ cm/s; Papp B→A [1]: 5.6 ×10⁻⁶ cm/s
25 | CC(C)c1ccccc1-c1c[nH]c2ncc(-c3cccc(C(N)=O)c3)cc12 [Compound 26] | 33.1 ± 4.2% | – | –
26 | NC(=O)c1cccc(-c2cnc3[nH]cc(-c4ccccc4Cl)c3c2)c1 [Compound 21] | 23.6 ± 2.6% | – | –
27 | NC(=O)c1cccc(-c2cnc(N)c(Cl)c2)c1 [Compound 4] | 45.6 ± 4.2% | – | –
28 | Cc1ccccc1-c1c[nH]c2ncc(-c3cccc(C(N)=O)c3)cc12 [Compound 23] | 51.6 ± 2.6% | 193 ± 6.6 nM | –

Continued, in another order:

Row | inhibition at 0.2 µM (CDK8) | IC50 (CDK8) | SMILES | other results
29 | 65.5 ± 3.8% | 86.7 ± 6.5 nM | NC(=O)c1cccc(-c2cnc3[nH]cc(-c4cccc(Cl)c4)c3c2)c1 [Compound 30] | IC50 (molm-13): > 50000 nM; IC50 (GES-1): > 100000 nM; IC50 (HCT-116): > 50000 nM; IC50 (A549): > 50000 nM; IC50 (HT-29): > 50000 nM; IC50 (MGC-803): > 50000 nM; IC50 (MV4-11): > 50000 nM; IC50 (MDA-MB-231): > 50000 nM; IC50 (A375): > 50000 nM; IC50 (SW480): > 50000 nM
30 | 16.9 ± 2.2% | – | NC(=O)c1cccc(-c2cnc3[nH]cc(-c4ccccc4OC(F)(F)F)c3c2)c1 [Compound 28] | –
31 | 28.3 ± 3.1% | – | NC(=O)c1cccc(-c2cnc3[nH]cc(-c4ccc(O)cc4)c3c2)c1 [Compound 37] | –
32 | 23.4 ± 3.3% | – | NC(=O)c1cccc(-c2cnc3[nH]cc(-c4cccc(OC(F)(F)F)c4)c3c2)c1 [Compound 34] | –
33 | 46.3 ± 1.9% | – | NC(=O)c1cccc(-c2cnc3[nH]cc(-c4ccc(OC(F)(F)F)cc4)c3c2)c1 [Compound 40] | –
34 | 61.6 ± 5.4% | 128 ± 3.8 nM | NC(=O)c1cccc(-c2cnc3[nH]cc(-c4ccc(Cl)cc4)c3c2)c1 [Compound 36] | –
35 | 22.3 ± 3.7% | – | NC(=O)c1cccc(-c2cnc3[nH]cc(-c4ccc(C(F)(F)F)cc4)c3c2)c1 [Compound 39] | –
36 | 34.6 ± 4.1% | – | NC(=O)c1cccc(-c2cnc3[nH]cc(-c4cccc(C(F)(F)F)c4)c3c2)c1 [Compound 33] | –
37 | 23.1 ± 2.5% | – | NC(=O)c1cccc(-c2cnc3[nH]cc(-c4cccc(F)c4)c3c2)c1 [Compound 29] | –
38 | 30.5 ± 2.3% | – | NC(=O)c1cccc(-c2cnc3[nH]cc(-c4cccc(O)c4)c3c2)c1 [Compound 31] | –
39 | 82.5 ± 5.8% | 37.2 ± 2.5 nM | Cc1c(Br)c(Br)c2c3c1nc(N1CCNCC1)n3CCC2 [SEL-120-34A, reference compound] | IC50 (molm-13): 20 ± 10 nM; IC50 (GES-1): 55300 ± 3200 nM; IC50 (HCT-116): 11300 ± 1900 nM; IC50 (A549): 12100 ± 370 nM; IC50 (HT-29): 33800 ± 1400 nM; IC50 (MGC-803): 16300 ± 1860 nM; IC50 (MV4-11): 7 ± 1 nM; IC50 (MDA-MB-231): 9600 ± 810 nM; IC50 (A375): 5900 ± 1430 nM; IC50 (SW480): 17700 ± 2100 nM
40 | 44 ± 3.8% | – | COc1cccc(-c2c[nH]c3ncc(-c4cccc(C(N)=O)c4)cc23)c1 [Compound 32] | –
41 | 55.8 ± 4.6% | – | NC(=O)c1cccc(-c2cnc3[nH]cc(-c4ccc(F)cc4)c3c2)c1 [Compound 35] | –
42 | 26.4 ± 1.6% | – | COc1ccc(-c2c[nH]c3ncc(-c4cccc(C(N)=O)c4)cc23)cc1 [Compound 38] | –
43 | 15.9 ± 5.2% | – | NC(=O)c1cccc(-c2cnc3[nH]cc(-c4ccccc4C(F)(F)F)c3c2)c1 [Compound 27] | –
